Measurements: patent US9278962B2 (Cytokinetics, Inc., priority 2011, dated 2016)
Each block holds one compound with its values, some of them ahead of it.

Test system: rabbit skeletal myofibrils (approximately 90% fast fibers)
Assay: Activation of fast skeletal myofibrils (PUMA coupled-enzyme ATPase assay, AC1.4)
Type: biochemical
Details: concentration at which the compound increased enzymatic activity by 40%, calcium at pCa25

SMILES: Cn1cc(-c2nnc(NCC3(c4ncccc4F)CCC3)s2)cn1 [N-((1-(3-fluoropyridin-2-yl)cyclobutyl)methyl)-5-(1-methyl-1H-pyrazol-4-yl)-1,3,4-thiadiazol-2-amine]
Mean AC1.4 (Table 3): D (D=>20 uM)

SMILES: CN(C)CCNc1nsc(NCC(C)(C)c2ccc(F)cc2)n1 [{2-[(5-{[2-(4-fluorophenyl)-2-methylpropyl]amino}(1,2,4-thiadiazol-3-yl))amino]ethyl}dimethylamine]
Mean AC1.4 (Table 2): D (D=>20 uM)

SMILES: NC(=O)c1cc(Cl)c2nc(NCC3(c4ncccc4F)CCC3)sc2c1 [4-chloro-2-((1-(3-fluoropyridin-2-yl)cyclobutyl)methylamino)benzo[d] thiazole-6-carboxamide]
Mean AC1.4 (Table 4): A (A=<1 uM)

SMILES: C[C@H](CNc1nc(-c2cncc(C#N)c2)ns1)c1ccc(F)cc1 [5-(5-{[(2S)-2-(4-fluorophenyl)propyl]amino}-1,2,4-thiadiazol-3-yl)pyridine-3-carbonitrile]
Mean AC1.4 (Table 2): C (C=10-20 uM)

SMILES: COc1cccnc1C1(CNc2nc3ccc(Cl)cc3s2)CCC1 [6-chloro-N-((1-(3-methoxypyridin-2-yl)cyclobutyl)methyl)benzo[d] thiazol-2-amine]
Mean AC1.4 (Table 4): B (B=1-10 uM)

SMILES: NC(=O)c1ccc(F)c(-c2nnc(NC[C@]3(c4ncccc4F)C[C@H](F)C3)s2)c1 [4-fluoro-3-(5-((3-fluoro-1-(3-fluoropyridin-2-yl)cyclobutyl)methylamino)-1,3,4-thiadiazol-2-yl)benzamide]
Mean AC1.4 (Table 3): A (A=<1 uM)

SMILES: NC(=O)c1cccc2sc(NC[C@]3(c4ncccc4F)C[C@H](F)C3)nc12
Mean AC1.4 (Table 4): D (D=>20 uM)

SMILES: CC(C)(CNc1nc(Cc2ccc(O)cc2)ns1)c1ccc(F)cc1 [4-[(5-{[2-(4-fluorophenyl)-2-methylpropyl]amino}-1,2,4-thiadiazol-3-yl)methyl]phenol]
Mean AC1.4 (Table 2): A (A=<1 uM)

SMILES: CC(C)(C(=O)Nc1nc(-c2ccccc2)ns1)c1ccc(F)cc1 [2-(4-fluorophenyl)-2-methyl-N-(3-phenyl(1,2,4-thiadiazol-5-yl))propanamide]
Mean AC1.4 (Table 2): D (D=>20 uM)

SMILES: CC(C)(CNc1nc(-c2ccc(O)nc2)ns1)c1ccc(F)cc1 [5-(5-{[2-(4-fluorophenyl)-2-methylpropyl]amino}-1,2,4-thiadiazol-3-yl)pyridin-2-ol]
Mean AC1.4 (Table 2): B (B=1-10 uM)

SMILES: Fc1ccc(Cc2nsc(Nc3ccc(Cl)cc3)n2)cc1 [(4-chlorophenyl){3-[(4-fluorophenyl)methyl](1,2,4-thiadiazol-5-yl)}amine]
Mean AC1.4 (Table 2): D (D=>20 uM)

SMILES: CC(C)(CNc1nc2c(Cl)cccc2s1)c1ccc(F)cc1 [4-chloro-N-(2-(4-fluorophenyl)-2-methylpropyl)benzo[d]thiazol-2-amine]
Mean AC1.4 (Table 4): A (A=<1 uM)

SMILES: N#Cc1ccc(Cl)c(-c2nnc(NC[C@]3(c4ncccc4F)C[C@@H](F)C3)s2)c1 [4-chloro-3-(5-(((cis)-3-fluoro-1-(3-fluoropyridin-2-yl)cyclobutyl)methylamino)-1,3,4-thiadiazol-2-yl)benzonitrile]
Mean AC1.4 (Table 3): B (B=1-10 uM)

SMILES: CC(C)(Nc1nnc(-c2cc(C#N)ccc2F)o1)c1ccc(F)cc1 [4-fluoro-3-(5-(2-(4-fluorophenyl)propan-2-ylamino)-1,3,4-oxadiazol-2-yl)benzonitrile]
Mean AC1.4 (Table 5): D (D=>20 uM)

SMILES: C[C@H](CNc1nc(-c2ccc(C(N)=O)cc2)ns1)c1ccc(F)cc1 [4-(5-{[(2S)-2-(4-fluorophenyl)propyl]amino}-1,2,4-thiadiazol-3-yl)benzamide]
Mean AC1.4 (Table 2): A (A=<1 uM)

SMILES: CC(C)(CNc1nc(CN2CCN(C(=O)CO)CC2)ns1)c1ccc(F)cc1 [1-{4-[(5-{[2-(4-fluorophenyl)-2-methylpropyl]amino}(1,2,4-thiadiazol-3-yl))methyl]piperazinyl}-2-hydroxyethan-1-one]
Mean AC1.4 (Table 2): D (D=>20 uM)

SMILES: NC(=O)c1cccc(-c2nnc(NC[C@]3(c4ncccc4F)C[C@@H](F)C3)s2)c1 [3-(5-(((cis)-3-fluoro-1-(3-fluoropyridin-2-yl)cyclobutyl)methylamino)-1,3,4-thiadiazol-2-yl)benzamide]
Mean AC1.4 (Table 3): B (B=1-10 uM)

SMILES: Fc1ccc(Cc2nsc(NCCc3cccnc3)n2)cc1 [{3-[(4-fluorophenyl)methyl](1,2,4-thiadiazol-5-yl)}(2-(3-pyridyl)ethyl)amine]
Mean AC1.4 (Table 2): D (D=>20 uM)

SMILES: Clc1ccc(Cc2nsc(NCCc3cccc(Cl)c3)n2)cc1 [[2-(3-chlorophenyl)ethyl]{3-[(4-chlorophenyl)methyl](1,2,4-thiadiazol-5-yl)}amine]
Mean AC1.4 (Table 2): D (D=>20 uM)

SMILES: COc1cccc(Cc2nsc(NCCc3ccc(F)c(F)c3)n2)c1 [[2-(3,4-difluorophenyl)ethyl]{3-[(3-methoxyphenyl)methyl](1,2,4-thiadiazol-5-yl)}amine]
Mean AC1.4 (Table 2): B (B=1-10 uM)

SMILES: CC(C)(CNc1nc(CN2CC[C@H](O)C2)ns1)c1ccc(F)cc1 [(3S)-1-[(5-{[2-(4-fluorophenyl)-2-methylpropyl]amino}(1,2,4-thiadiazol-3-yl))methyl]pyrrolidin-3-ol]
Mean AC1.4 (Table 2): D (D=>20 uM)

SMILES: CC(C)(CNc1nc(CCN2CCC(O)CC2)ns1)c1ccc(F)cc1 [1-[2-(5-{[2-(4-fluorophenyl)-2-methylpropyl]amino}-1,2,4-thiadiazol-3-yl)ethyl]piperidin-4-ol]
Mean AC1.4 (Table 2): D (D=>20 uM)

SMILES: Fc1ccc(CCNc2nc(Cc3ccc(F)cc3)ns2)cc1 [[2-(4-fluorophenyl)ethyl]{3-[(4-fluorophenyl)methyl](1,2,4-thiadiazol-5-yl)}amine]
Mean AC1.4 (Table 2): B (B=1-10 uM)

SMILES: Fc1cccnc1C1(CNc2cnc(-c3ccccc3)s2)CCC1 [N-((1-(3-fluoropyridin-2-yl)cyclobutyl)methyl)-2-phenylthiazol-5-amine]
Mean AC1.4 (Table 5): D (D=>20 uM)

SMILES: Cc1ccc(Br)cc1-c1nnc(NC[C@]2(c3ncccc3F)C[C@H](F)C2)s1 [5-(5-bromo-2-methylphenyl)-N-(((trans)-3-fluoro-1-(3-fluoropyridin-2-yl)cyclobutyl)methyl)-1,3,4-thiadiazol-2-amine]
Mean AC1.4 (Table 3): A (A=<1 uM)

SMILES: NC(=O)c1ccc(F)c(-c2nnc(NC3(c4ncccc4F)CCC3)[nH]2)c1 [4-fluoro-3-(5-(1-(3-fluoropyridin-2-yl)cyclobutylamino)-4H-1,2,4-triazol-3-yl)benzamide]
Mean AC1.4 (Table 5): D (D=>20 uM)

SMILES: NC(=O)c1ccc(-c2nnc(NCC3(c4ncccc4F)CCC3)s2)cc1 [4-(5-((1-(3-fluoropyridin-2-yl)cyclobutyl)methylamino)-1,3,4-thiadiazol-2-yl)benzamide]
Mean AC1.4 (Table 3): D (D=>20 uM)

SMILES: CC(C)(CNc1nc(N2CCOCC2)ns1)c1ccc(F)cc1 [[2-(4-fluorophenyl)-2-methylpropyl](3-morpholin-4-yl(1,2,4-thiadiazol-5-yl))amine]
Mean AC1.4 (Table 2): D (D=>20 uM)

The next lines start with the values.

Mean AC1.4 (Table 2): D (D=>20 uM)
SMILES: Fc1ccc(Cc2nsc(NCCc3ccccn3)n2)cc1 [{3-[(4-fluorophenyl)methyl](1,2,4-thiadiazol-5-yl)}(2-(2-pyridyl)ethyl)amine]

Mean AC1.4 (Table 2): A (A=<1 uM)
SMILES: CC(C)(CNc1nc(Cc2ccc(O)cc2)ns1)c1ccc(Cl)cc1 [4-[(5-{[2-(4-chlorophenyl)-2-methylpropyl]amino}-1,2,4-thiadiazol-3-yl)methyl]phenol]

Mean AC1.4 (Table 5): C (C=10-20 uM)
SMILES: CC(C)(CNc1nc(-c2cccnc2)no1)c1ccc(F)cc1 [N-(2-(4-fluorophenyl)-2-methylpropyl)-3-(pyridin-3-yl)-1,2,4-oxadiazol-5-amine]

Mean AC1.4 (Table 2): A (A=<1 uM)
SMILES: COc1cccc(Cc2nsc(NCC(C)(C)c3ccc(Cl)cc3)n2)c1 [[2-(4-chlorophenyl)-2-methylpropyl]{3-[(3-methoxyphenyl)methyl](1,2,4-thiadiazol-5-yl)}amine]

Mean AC1.4 (Table 2): C (C=10-20 uM)
SMILES: Clc1ccc(CCNc2nc(Cc3ccc(Cl)cc3)ns2)cc1 [[2-(4-chlorophenyl)ethyl]{3-[(4-chlorophenyl)methyl](1,2,4-thiadiazol-5-yl)}amine]

Mean AC1.4 (Table 3): B (B=1-10 uM)
SMILES: Fc1cccnc1C1(CNc2nnc(-c3ccc(Br)cc3)s2)CCC1 [5-(4-bromophenyl)-N-((1-(3-fluoropyridin-2-yl)cyclobutyl)methyl)-1,3,4-thiadiazol-2-amine]

Mean AC1.4 (Table 2): C (C=10-20 uM)
SMILES: Clc1ccc(Cc2nsc(NCCc3ccc(Cl)c(Cl)c3)n2)cc1 [[2-(3,4-dichlorophenyl)ethyl]{3-[(4-chlorophenyl)methyl](1,2,4-thiadiazol-5-yl)}amine]

Mean AC1.4 (Table 3): B (B=1-10 uM)
SMILES: N#Cc1ccccc1-c1nnc(NCC2(c3ncccc3F)CCC2)s1 [2-(5-((1-(3-fluoropyridin-2-yl)cyclobutyl)methylamino)-1,3,4-thiadiazol-2-yl)benzonitrile]

Mean AC1.4 (Table 2): B (B=1-10 uM)
SMILES: CC(C)(CNc1nc(-c2ccccc2O)ns1)c1ccc(F)cc1 [2-(5-{[2-(4-fluorophenyl)-2-methylpropyl]amino}-1,2,4-thiadiazol-3-yl)phenol]

Mean AC1.4 (Table 4): B (B=1-10 uM)
SMILES: N#Cc1cc(Cl)c2nc(NCC3(c4ncccc4F)CCC3)sc2c1 [4-chloro-2-((1-(3-fluoropyridin-2-yl)cyclobutyl)methylamino)benzo[d] thiazole-6-carbonitrile]

Mean AC1.4 (Table 3): A (A=<1 uM)
SMILES: Fc1ccc(Br)cc1-c1nnc(NC[C@]2(c3ncccc3F)C[C@@H](F)C2)s1 [5-(5-bromo-2-fluorophenyl)-N-(((cis)-3-fluoro-1-(3-fluoropyridin-2-yl)cyclobutyl)methyl)-1,3,4-thiadiazol-2-amine]

Mean AC1.4 (Table 2): B (B=1-10 uM)
SMILES: COCCCc1nsc(NCC(C)(C)c2ccc(F)cc2)n1 [[2-(4-fluorophenyl)-2-methylpropyl][3-(3-methoxypropyl)(1,2,4-thiadiazol-5-yl)]amine]

Mean AC1.4 (Table 3): B (B=1-10 uM)
SMILES: CC(C)(O)c1ccc(F)c(-c2nnc(NC[C@]3(c4ncccc4F)C[C@H](F)C3)s2)c1 [2-(4-fluoro-3-(5-((3-fluoro-1-(3-fluoropyridin-2-yl)cyclobutyl)methylamino)-1,3,4-thiadiazol-2-yl)phenyl)propan-2-ol]

Mean AC1.4 (Table 2): D (D=>20 uM)
SMILES: Fc1ccc(Cc2nsc(NCCc3ccncc3)n2)cc1 [{3-[(4-fluorophenyl)methyl](1,2,4-thiadiazol-5-yl)}(2-(4-pyridyl)ethyl)amine]
